# Reference: patent publication US6911416B2, “Substituted N-benzoyl-n′(tetrazolylphenyl)-ureas and their use as pest control agents” (priority 2000, dated 2005)
# Test system: fall armyworm (Spodoptera exigua) caterpillars
# Test: Spodoptera exigua test (dipped cabbage leaves)
# Format: in vivo
# Details: active compound concentration 0.1%, after 6 days, cabbage leaves (Brassica oleracea)
# Method: (§1) To produce a suitable active compound preparation, 1 part by weight of active compound is mixed with the stated amounts of solvent and emulsifier, and the concentrate is diluted with emulsifier-containing water to the desired concentration.
# Cabbage leaves (Brassica oleracea) are treated by dipping into the active compound preparation of the desired concentration and are populated with fall armyworm (Spodoptera exigua) caterpillars while the leaves are still moist.
# (§2) After the desired period, the destruction is determined in %. 100% means that all the caterpillars have been killed; 0% means that none of the caterpillars have been killed.
row,Molecule,destruction [%]
1,CC(C)(C)n1nnc(-c2ccc(NC(=O)NC(=O)c3c(F)cccc3F)c(Cl)c2)n1 [Example 4],100

# Test system: fall armyworm (Spodoptera frugiperda) caterpillars
# Test: Spodoptera frugiperda test (dipped cabbage leaves)
# Format: in vivo
# Details: active compound concentration 0.1%, after 7 days, cabbage leaves (Brassica oleracea)
# Method: Spodoptera frugiperda Test
# as §1
# Cabbage leaves (Brassica oleracea) are treated by dipping into the active compound preparation of the desired concentration and are populated with fall armyworm (Spodoptera frugiperda) caterpillars while the leaves are still moist.
# as §2
row,Molecule,destruction [%]
1,CC(C)(C)n1nnc(-c2cc(Cl)c(NC(=O)NC(=O)c3c(F)cccc3F)cc2Cl)n1 [Example 16],100
2,O=C(NC(=O)c1c(F)cccc1F)Nc1ccc(-c2nnnn2C(F)F)cc1Cl [Example 20],100
3,CCCn1nnc(-c2ccc(NC(=O)NC(=O)c3c(F)cccc3F)c(Cl)c2)n1 [Example 15],100
4,O=C(NC(=O)c1c(F)cccc1F)Nc1ccc(-c2nnn(C(F)F)n2)cc1Cl [Example 18],100
5,CC(C)(C)n1nnc(-c2ccc(NC(=O)NC(=O)c3c(F)cccc3F)c(Cl)c2)n1 [Example 4],100
6,Cn1nnc(-c2ccc(NC(=O)NC(=O)c3c(F)cccc3F)c(Cl)c2)n1 [Example 5],100
7,CCOCn1nnc(-c2ccc(NC(=O)NC(=O)c3c(F)cccc3F)c(Cl)c2)n1 [Example 14],100
8,CC(C)(C)n1nnc(-c2ccc(NC(=O)NC(=O)c3c(F)cccc3Cl)c(Cl)c2)n1 [Example 10],100

# Test system: mustard beetle (Phaedon cochleariae) larvae
# Test: Phaedon larvae test (dipped cabbage leaves)
# Format: in vivo
# Details: active compound concentration 0.1%, after 7 days, cabbage leaves (Brassica oleracea)
# Method: as §1
# Cabbage leaves (Brassica oleracea) are treated by dipping into the active compound preparation of the desired concentration and are populated with mustard beetle (Phaedon cochleariae) larvae while the leaves are still moist.
# After the desired period, the destruction is determined in %. 100% means that all the beetle have been killed; 0% means that none of the beetle larvae have been killed.
row,Molecule,destruction [%]
1,CC(C)(C)n1nnc(-c2cc(Cl)c(NC(=O)NC(=O)c3c(F)cccc3F)cc2Cl)n1 [Example 16],100
2,O=C(NC(=O)c1c(F)cccc1F)Nc1ccc(-c2nnnn2C(F)F)cc1Cl [Example 20],100
3,O=C(NC(=O)c1c(F)cccc1F)Nc1ccc(-c2nnn(C(F)F)n2)cc1Cl [Example 18],100
4,CC(C)(C)n1nnc(-c2ccc(NC(=O)NC(=O)c3c(F)cccc3F)c(Cl)c2)n1 [Example 4],100
5,CC(C)(C)n1nnc(-c2ccc(NC(=O)NC(=O)c3c(F)cccc3Cl)c(Cl)c2)n1 [Example 10],100

# Test system: not listed separately
# Test: logP (pH2) determination by HPLC, EEC directive 79/831 Annex V. A8
# Format: physicochemical
# Details: pH 2
Molecule,logP (pH2) or m.p. (° C.),log P(pH2)
O=C(NC(=O)c1c(F)cccc1F)Nc1ccc(-c2nnn(-c3ccccc3)n2)cc1Cl [Example 19],4.63,
"N-(2,6-difluorobenzoyl)-N′-[2-chloro-4-(1-methyl-tetrazol-5-yl]-urea [Example 3]",,2.31

# Same assay, conditions: pH2; Table 1, compounds of formula (I); only decimal values are logP
row,Molecule,logP (pH2)
1,O=C(NC(=O)c1c(F)cccc1F)Nc1cc(Cl)c(-c2nn[nH]n2)cc1Cl [Example 7],2.30
2,CC(C)(C)n1nnc(-c2cc(Cl)ccc2NC(=O)NC(=O)c2c(F)cccc2F)n1 [Example 11],4.20
3,O=C(NC(=O)c1c(F)cccc1F)Nc1ccc(Cl)cc1-c1nn[nH]n1 [Example 6],2.16
4,Cn1nnc(-c2ccc(NC(=O)NC(=O)c3c(F)cccc3F)c(Cl)c2)n1 [Example 5],2.88
5,CC(C)(C)n1nnc(-c2ccc(NC(=O)NC(=O)c3c(F)cccc3F)cc2Cl)n1 [Example 35],3.68

# Same assay, conditions: pH2; Table 2, tetrazolylanilines of formula (III)
row,Molecule,logP (pH2)
1,Nc1ccc(-c2nnnn2C(F)F)cc1Cl [III-16],1.92
2,Nc1ccc(-c2nn[nH]n2)c(Cl)c1 [III-9],1.53
3,Nc1ccc(-c2nnn(C(F)F)n2)c(Cl)c1 [III-48],2.09
4,CC(C)(C)n1nnc(-c2ccc(N)cc2F)n1 [III-32],2.14
5,CC(C)Cn1nnc(-c2cc(Cl)c(N)cc2Cl)n1 [III-21],3.15
6,Nc1ccc(-c2nnn(C(F)F)n2)cc1Cl [III-14],2.08
7,CCCn1nnc(-c2ccc(N)c(Cl)c2)n1 [III-12],2.52
8,CC(C)Cn1nnc(-c2cc(Cl)c(N)c(Cl)c2)n1 [III-20],3.78
9,CC(C)(C)n1nnc(-c2ccc(N)cc2)n1 [III-23],1.69
10,Nc1ccc(Cl)cc1-c1nn[nH]n1 [III-7],1.50
11,CC(=O)OCCn1nnc(-c2ccc(N)c(Cl)c2)n1 [III-24],1.92
12,Nc1c(Cl)cc(-c2nn[nH]n2)cc1Cl [III-25],1.40
13,Nc1ccc(-c2nnn(C(F)F)n2)c(F)c1 [III-50],1.84
14,Cn1nnc(-c2ccc(N)c(Cl)c2)n1 [III-6],1.70
15,CC(C)(C)n1nnc(-c2ccc(N)cc2Cl)n1 [III-31],2.42
16,Nc1ccc(-c2nnnn2C(F)F)c(Cl)c1 [III-49],1.81
17,Nc1ccc(-c2nnn(C(F)F)n2)cc1 [III-46],1.49
18,Nc1ccc(-c2nnn(-c3ccccc3)n2)cc1Cl [III-15],3.28
19,COC(=O)Cn1nnc(-c2ccc(N)c(Cl)c2)n1 [III-10],1.92
20,Nc1ccc(-c2nnnn2C(F)F)cc1 [III-47],1.24
21,Nc1ccc(-c2nnn(CCC(F)=C(F)F)n2)cc1Cl [III-18],2.68
22,CCCn1nnc(-c2cc(Cl)c(N)cc2Cl)n1 [III-22],2.75
23,Cc1cc(-c2nn[nH]n2)cc(Cl)c1N [III-5],1.20
24,Nc1cc(Cl)c(-c2nnn(C(F)F)n2)cc1Cl [III-28],2.69
25,Nc1cc(Cl)c(-c2nnnn2C(F)F)cc1Cl [III-29],2.36
26,Nc1cc(Cl)c(-c2nn[nH]n2)cc1Cl [III-8],1.16
27,CC(C)Cn1nnc(-c2ccc(N)c(Cl)c2)n1 [III-17],2.95
28,CCOCn1nnc(-c2ccc(N)c(Cl)c2)n1 [III-11],2.34
29,CC(C)(C)n1nnc(-c2cc(Cl)c(N)c(Cl)c2)n1 [III-19],3.81
30,CC(C)(C)n1nnc(-c2ccc(N)c(Cl)c2)n1 [III-26],2.94

# Same assay, conditions: pH 2; pH2; HPLC gradient acetonitrile/0.1% aqueous phosphoric acid; values in preparation examples; read-out: log P(pH2)
row,Molecule,chromatographic logP
1,Cn1nnnc1-c1ccc(N)c(Cl)c1 [1-methyl-(3-chloro-4-aminophenyl)-tetrazole],1.17
2,"CC(C)(C)n1nnc(-c2cc(Cl)ccc2N)n1 [Example a, 5-(2-amino-5-chlorophenyl)-2-tert-butyl-tetrazole]",3.58
3,"Nc1ccc(-c2nnn(Cc3ccc(Br)cc3)n2)cc1Cl [Example b, 5-(3-chloro-4-aminophenyl)-2-(4-bromobenzyl)-tetrazole]",3.52
4,"O=C(NC(=O)c1c(F)cccc1F)Nc1ccc(-c2nnn(C3CCCCO3)n2)cc1Cl (centres unmarked) [Example 2, N-(2,6-difluorobenzoyl)-N′-[2-chloro-4-(2-tetrahydropyran-2-yl-tetrazol-5-yl)-phenyl]-urea]",3.72
5,"O=C(NC(=O)c1c(F)cccc1F)Nc1ccc(-c2nn[nH]n2)cc1Cl [Example 1, N-(2,6-difluorobenzoyl)-N′-(2-chloro-4-tetrazol-5-yl-phenyl)-urea]",2.13
6,Nc1ccc(-c2nn[nH]n2)cc1Cl [5-(3-chloro-4-aminophenyl)-tetrazole],1

# Test system: diamond-back moth (Plutella xylostella) caterpillars
# Test: Plutella test (dipped cabbage leaves)
# Format: in vivo
# Details: active compound concentration 0.1%, after 6 days, cabbage leaves (Brassica oleracea)
# Method: as §1
# Cabbage leaves (Brassica oleracea) are treated by dipping into the active compound preparation of the desired concentration and are populated with diamond-back moth (Plutella xylostella) caterpillars while the leaves are still moist.
# as §2
row,Molecule,destruction [%]
1,CC(C)(C)n1nnc(-c2ccc(NC(=O)NC(=O)c3c(F)cccc3F)c(Cl)c2)n1 [Example 4],100

# Test system: Heliothis virescens
# Test: Heliothis virescens test (dipped soya shoots)
# Format: in vivo
# Details: active compound concentration 0.1%, after 6 days, soya shoots (Glycine max)
# Method: as §1
# Soya shoots (Glycine max) are treated by dipping into the active compound preparation of the desired concentration and are populated with Heliothis virescens while the leaves are still moist.
# as §2
row,Molecule,destruction [%]
1,CC(C)(C)n1nnc(-c2ccc(NC(=O)NC(=O)c3c(F)cccc3F)c(Cl)c2)n1 [Example 4],100
